In US7211596B2, “Stable high-concentration injection containing pyrazolone derivative” (Mitsubishi Pharma Corporation, priority 2001, dated 2007):
In brackets after ≈: the same amount, converted by molar mass.

Experiment: Test 1: solubility of Edaravone in various aqueous solubilizer solutions (saturated solution at 4° C., HPLC)
Assay type: physicochemical
Details: aqueous with cosolvent or surfactant or cyclodextrin, thermodynamic from solid
Experimental: Water for injection (5 mL) was added to 5 mL of each of ethanol, propylene glycol, polyethylene glycol 400 and N,N-dimethylacetamide widely used as a solubilizer for an intravenous injection, followed by stirring. Edaravone was added to the resulting aqueous solubilizer solution and the mixture was stirred in a thermostat maintained at 4° C. by using a stirrer at a fixed but not bubbling speed all day and night. After completion of the stirring, a portion of Edaravone which had remained undissolved was checked visually to confirm that each solution thus obtained was a saturated aqueous solution of Edaravone. Then, the solution was quickly filtered through a membrane filter (pore size: 0.45 μm) kept at 4° C. and the amount of Edaravone contained in the filtrate was measured by HPLC method as explained below. Further, the maximum amount of each of the solubilizers used a day as an injection for intravenous administration was also shown (Iyakuhin-tenkabutu-jiten 2000 (published by Yakuji-nippou-sha), p. 127, 264 and 229 to 230. The maximum amount of ethanol was calculated based on the amount used for NIMOTOP IV (registered trademark, Bayer Co.)) and its solubilizing effect on Edaravone was calculated as a numerical term.
Measuring Method by HPLC and its Conditions:
By liquid chromatography (LC) using ethyl paraaminobenzoate as an internal standard substance, a peak area ratio of Edaravone to the internal standard substance was found and based on it, the concentration of Edaravone was determined. • Detector: Ultraviolet spectrophotometer (wavelength measured: 240 nm) • Column: A stainless tube having inside diameter of about 4 mm and length of about 15 cm and filled with octadecylsilylated silica-gel 5 μm was used at a fixed temperature near 50° C. • Mobile phase: A (3:1) mixed solution of 10 mM aqueous acetic acid solution and methanol, adjusted to pH 5.5 with aqueous ammonia • Flow rate: adjusted so that the retention time of Edaravone would be about 8 minutes.

solubility (50 v/v % N,N-dimethylacetamide in water, in 50 v/v % N,N-Dimethylacetamide, 4° C.): 20 mg/mL (≈ 115 mM)
solubility (50 v/v % ethanol in water, in 50 v/v % Ethanol, 4° C.): 10 mg/mL (≈ 57.4 mM)
solubility (50 v/v % polyethylene glycol 400 in water, in 50 v/v % Polyethylene glycol 400, 4° C.): 13 mg/mL (≈ 74.6 mM)
solubility (50 v/v % propylene glycol in water, in 50 v/v % Propylene glycol, 4° C.): 6 mg/mL (≈ 34.4 mM)
Structure (SMILES): CC1=NN(c2ccccc2)C(=O)C1 [Edaravone, 3-Methyl-l-phenyl-2-pyrazolin-5-one]
